Source: paper PMC8248988, “A signal capture and proofreading mechanism for the KDEL-receptor explains selectivity and dynamic range in ER retrieval” (eLife, 2021)

Target: T1, human KDELR1 D50N/N54K/E117Q (Homo sapiens, UniProt P24390, D50N/E117Q/N54K)
T1 construct: expressed in transfected cells; host or cells: COS-7
Test: ER retrieval assay, KDELR1 D50N/N54K/E117Q-GFP (K. lactis like)
Type: cell-based
Conditions: COS-7 cells
Description: To create KDELR1-GFP and KDELR2-GFP, the reading frames for Homo sapiens KDELR1 (Uniprot: P24390) and KDELR2 (Uniprot: P33947) were cloned into the pEF5/FRT low level mammalian expression vector with a C-terminal 20 amino acid linker made up of 5 copies of Gly-Ser-Ser-Ser followed by GFP. Specific point mutations were introduced using the Quickchange protocol (Stratagene) and are described in the key resources table and figures. To create the mScarlet-KDEL^sec ligand construct, mScarlet with an N-terminal hGH signal peptide and the 16 C-terminal residues of human BiP at its C-terminus, containing the KDEL signal, was cloned into the pcDNA3.1 vector. […] The Golgi marker protein TGN46 was detected by antibody (sheep anti-TGN46 AHP500G; AbD Serotec) and an Alexa 647 conjugated secondary anti-sheep secondary (A-21448, Invitrogen). In Figure 1d and e, endogenous KDELR was detected by antibody (mouse anti-KDELR ADI-VAA-PT048; Enzo Life Sciences) and Alexa 488 conjugated anti-mouse secondary antibody (A-21202, Invitrogen). For retrieval assays in other figures, KDELR-GFP fusion proteins were directly detected by fluorescence. The mScarlet-xDEL fusion proteins were directly detected by fluorescence. […] The fraction of KDEL receptor in the Golgi apparatus was calculated by dividing the Golgi signal by the total cell signal. […]

T1 sequence (P24390 whole entry D50N/N54K/E117Q): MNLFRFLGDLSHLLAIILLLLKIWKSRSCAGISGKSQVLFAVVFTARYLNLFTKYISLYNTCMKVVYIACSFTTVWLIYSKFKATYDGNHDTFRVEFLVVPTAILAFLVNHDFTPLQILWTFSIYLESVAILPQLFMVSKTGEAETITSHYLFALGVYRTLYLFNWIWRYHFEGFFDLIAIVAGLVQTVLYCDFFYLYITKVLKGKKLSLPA

ADEL [pcDNA3.1 hGHss-mScarlet-H. sapiens BiP639-654K651A (ADEL^SEC), secreted mScarlet fusion with human BiP C-terminus, ADEL signal]
ligand-induced receptor retrieval to the ER (in words): improved the response
